Test results published in article PMC10474815 (Science (New York, N.Y.), 2023).

Legend:
KRAS^G12C = KRAS^G12C (Homo sapiens, UniProt P01116+P62937, G12C); experiment: Kinetic target engagement assay; format: biochemical; settings: active KRAS G12C in the presence of CYPA
CYPA = CYPA (Homo sapiens, UniProt P62937); experiment: Reversible binary complex formation with CYPA; format: binding
[1] = biological target: T1, CYPA:RMC-4998:KRAS^G12C tri-complex (Homo sapiens, UniProt P01116+P62937, G12C); experiment: Tri-complex stability after compound washout, biophysical assays; format: binding
[2] = biological target: T1, CYPA:RMC-4998:KRAS^G12C tri-complex; experiment: Tri-complex stability after compound washout, cellular experiments; format: cell-based
GDP-loaded KRAS^G12C = GDP-loaded KRAS^G12C (Homo sapiens, UniProt P01116+P62937, G12C); experiment: Native PAGE tri-complex formation with GDP-loaded KRAS G12C; format: binding; settings: KRAS G12C 2 μM, compound 10 μM, CYPA 2 μM
KRAS^G13C = KRAS^G13C (Homo sapiens, UniProt P01116, G13C); experiment: Activity on RAS variants
[3] = biological target: KRAS^G12C in MIA PaCa-2 cells (Homo sapiens, UniProt P01116+P62937, G12C); experiment: Covalent modification of KRAS G12C in cells; format: cell-based
KRAS^G12C mutant cells = experiment: Cancer cell line panel viability, 3D CellTiter-Glo; format: cell-based; settings: n = 17 G12C, n = 11 non-G12C cell lines
[4] = test system: KRAS^G12C mutant NSCLC PDX models; experiment: Patient-derived xenograft panel, NSCLC; format: in vivo; settings: 200 mg/kg orally once daily, 28-day treatment; 19/25 models
[5] = test system: KRAS^G12C mutant CRC PDX models; experiment: Patient-derived xenograft panel, CRC; format: in vivo; settings: 200 mg/kg orally once daily, 28-day treatment; 6/15 models

In the case of `CCn1c(-c2cccnc2[C@H](C)OC)c2c3cc(ccc31)-c1cccc(c1)C[C@H](NC(=O)[C@H](C(C)C)N1CC[C@]3(CCN(C(=O)C#CC(C)(C)N(C)C)C3)C1=O)C(=O)N1CCC[C@H](N1)C(=O)OCC(C)(C)C2` [RMC-4998], the “Covalent engagement efficiency kinact/KI” value (KRAS^G12C) is reported as 272,000 M^−1s^−1, the “koff of binary complex with CYPA” value (CYPA) is reported as 1.0 s⁻¹ and the Kd (CYPA; read-out: Kd of binary complex with CYPA) is reported as 1090 nM. The “Tri-complex half-life after compound washout” value [1] was “greater than 8 hours”, the “Tri-complex half-life after compound washout” value [2] was “greater than 8 hours” and the “Complex formation with GDP-loaded KRAS G12C” value (GDP-loaded KRAS^G12C) was “No complex was detected”. For the same molecule, the “Activity on KRAS G13C” value (KRAS^G13C) was “little, if any, activity”, the “Time to complete covalent modification of KRAS G12C” value [3] was at most 5 min and the “Selectivity index (G12C versus non-G12C mutant models)” value (KRAS^G12C mutant cells) was 1450 times.

With `CCn1c(-c2cccnc2[C@H](C)OC)c2c3cc(ccc31)N1CCO[C@@H](C[C@H](NC(=O)[C@H](C(C)C)N(C)C(=O)C3(F)CCN(C(=O)C#CC(C)(C)N(C)C)CC3)C(=O)N3CCC[C@H](N3)C(=O)OCC(C)(C)C2)C1` [RMC-6291] the “Selectivity index (G12C versus non-G12C mutant models)” value (KRAS^G12C mutant cells) was 13,500 times, the “Models with mean tumor regression” value [4] was 76% and the “Models with mean tumor regression” value [5] was 40%. For the same molecule, the Tolerability (NCI-H358 xenografts; mouse, in vivo, po) was “well tolerated”, the Tumor response (NCI-H358 xenografts; oral once daily, 28 days) was “near complete tumor regression” and the “Duration of KRAS G12C engagement and inhibition of ERK phosphorylation in tumors” value (NCI-H358 xenografts; single dose) was ~ 24 hours.

In the case of `C=C(F)C(=O)N1CCN(c2nc(OC[C@@H]3CCCN3C)nc3c2CCN(c2cccc4cccc(Cl)c24)C3)C[C@@H]1CC#N` [adagrasib], the “Effect of CYPA loss on cellular activity” value (CYPA-null H358 cells) is reported as “no effect”.
